Data on one molecule can be found in PMC10541198, “Specific quinone reductase 2 inhibitors reduce metabolic burden and reverse Alzheimer’s disease phenotype in mice” (The Journal of Clinical Investigation, 2023).

Common to all, as to assay type: in vivo, mouse
One data set concerns Amyloid β. Description: IHC of amyloid β in 5xFAD brain sections. The following applies: for Amyloid β normalized volume (individual mice): CA1, 5xFAD 1 month; for Figure 9B, IHC signal / Sup. Fig. 6-1B, IHC signal: individual animals; for Amyloid β vs vehicle: cortex, 5xFAD 1 month. The text has this:
(§1) Following the behavioral experiments, we assessed brain pathologies associated with AD present in the 5xFAD mice ([37]). Therefore, 5 days following the last behavioral experiment, and 1 month after the start of YB-537 consumption, mice were sacrificed, and coronal brain sections were used for IHC. Since the CA1 region of the hippocampus is affected during AD pathogenesis ([37]), and this brain region is involved in the behavioral paradigms used here, we acquired images of CA1. This was done with an Olympus IX83 confocal microscope using the same settings, antibodies, and exposures in all mice. Images were analyzed using Imaris (Bitplane; see methods). For each mouse, 3 coronal sections were used per antibody. In each section, the same region of CA1 was acquired, using the same image frame size and resolution, at all possible depths of the section — using a Z-stack of the whole section — to allow measurement of the fluorescent antibody marker volume, which was normalized to the brain volume from which it was taken. First, we measured oxidative stress, as indicated by 4-HNE ([38]) (Abcam, ab48506).
(§2) Perfused and fixed brain slices were blocked with 10% normal donkey serum (DNS) and 0.2% triton (Sigma-Aldrich) in PBS. Antibodies, including 4-HNE (AbCam, ab48506), Iba1 (AbCam, ab5076), AT-8 (Thermo, MN1020), Amyloid β (AbCam, ab201060), diluted in PBS with 10% DNS, were incubated at 4°C overnight. Secondary antibodies including donkey-anti-goat Alexa Fluor 568 (AbCam, ab175704), donkey-anti-mouse Cy 5 (Jackson Immuno Research, 715-175-151), and donkey-anti-rabbit DyLight 488 (AbCam, ab98488) all diluted 1:500 in PBS with 1% BSA, were applied to the slices at RT for 2 hours the next day. Slices were mounted onto glass slides using DAPI containing Vectashield (H-1200). Images were taken using a confocal microscope (Olympus IX83). Three slices were used per mouse per antibody. Tiling images of the dorsal CA1 and cortex (Bregma: –1.58mm to –2.30mm) were taken using ×20 objective, acquiring a Z-stack of the whole section. Analysis of the images was done blind by an experimenter unaware of the experimental conditions or details, using Imaris (Bitplane) software. A surface reconstruction module was used to extract the data as volumes of the used markers (4-HNE, phospho-tau, amyloid β, GFAP, and Iba1). Marker volume and intensity were normalized to the corresponding brain volume. The normalized value was averaged for each triplicate and presented here. […]
(§3) Brains were then briefly removed and placed in chilled, 4% PFA for 48 h, f oll owe d by immersion in 30% sucrose in 0.1 M PBS for a furt her 48 h. Bra i ns wer e t h e n stored at -80°C, until t he y were sliced into 40µm coronal sections usinga Lei ca CM 1950cryostat. Sli ces were then washed x3 in PBS and bl oc ke d for 1 h at RT using 10% normal donkey serum (DNS) and 0.2% triton (Sigma-Aldrich) in PBS. Antibodies, including 4- HNE (1:500, AbCam, ab48506), Iba1 (1:2,000, AbCam, ab5076), GFAP (Abcam, ab53554), phospho- tau (1:1,000, Thermo, MN1020) and amyloid β (1:1,000, AbCam, ab201060) diluted in PBS with 10% DNS were incubated at 4°C overnight. The next day, the slices were washed x3 times in PBS, and secondary antibodies including donkey anti goat A l e x a Fluor 568 (AbCam, ab175704), donkey anti-mouse Cy 5 (Jackson Immuno Research, 715- 175- 151) and donkey anti-rabbit DyLight 488 (AbCam, ab98488) all diluted 1:500 in PBS with 1% BSA, were applied to the slices at RT for 2 h. Following the incubation, the slices were washed x3 times in PBS, mounted onto gl ass slides, were uniformly covered in DAPI containing Vectashield (H-1200) and coverslips were a dde d. […]

A further data set concerns Iba1. In words: IHC of Iba1 (microglia activation) in 5xFAD brain sections. Conditions: for Iba1 normalized volume (individual mice): CA1, 5xFAD 1 month; for Figure 9D, IHC signal: individual animals; for Iba1 vs vehicle: cortex, 5xFAD 1 month.
Description: as §1, §2, §3

A further data set has as its system 5xFAD mice. Description: General wellbeing / adverse effects during 1 month ingestion. Conditions: 8-to-9-month-old 5xFAD, both sexes, 50 mg/kg in drinking water, month-long. The protocol: We next aimed to test the effect of QR2 inhibition in AD model mice using YB-537, taking advantage of its extremely high specificity, solubility, and lack of toxicity. First, we determined YB-537 pharmacokinetics (PK) and oral bioavailability and assessed any acute observable toxicity in mice. […] We therefore opted to chronically deliver YB-537 to AD-model mice via their drinking water, so they may freely ingest the inhibitor at 50 mg/kg, with minimal intervention or trauma, for 1 month. We chose 9-month-old 5xFAD ([27]) male and female mice in double-blind experiments, so that well-progressed symptoms and pathologies would be present, to mimic clinically relevant cases in human patients ([35]), as has been previously described in this mouse model. Other than an improvement in nest quality ([36]) over time seen in animals receiving YB-537 (starting at age 8 months and ending at age 9 months), no changes to general physical parameters or wellbeing were observed over the 1 month of YB-537 ingestion (Supplemental Figure 6, A–J). […] Since learning in this paradigm was slow, and performance was poor even following 6 days of training (using 4 learning trials a day), a test day was not carried out and instead only the learning rate was measured. […]

Where “and” joins values, the source holds several entries; their conditions need not be identical. Identical values can stand only once.

Consider `Cc1ccc(-c2cn3cccc(C)c3n2)cc1S(=O)(=O)N1CCNCC1` [YB-537], for which the “Amyloid β normalized volume (individual mice)” value in the data set with Amyloid β (Females) is 0.0438 and 0.0503 and 0.0630 and 0.0517 and 0.0415 and 0.0377 and 0.0224; with Amyloid β (Males) it was 0.0456 and 0.0411 and 0.0568 and 0.0482 and 0.0215 and 0.0315 and 0.0453 and 0.0211 and 0.0327; in the data set on Amyloid β (Males + Females), 0.0438 and 0.0503 and 0.0630 and 0.0315 and 0.0453 and 0.0211 and 0.0327 and 0.0456 and 0.0411 and 0.0568 and 0.0482 and 0.0215 and 0.0517 and 0.0415 and 0.0377 and 0.0224. The “Figure 9B, IHC signal” value was 0.0014 and 0.0009 and 0.0012 and 0.0011 and 0.0040 and 0.0050 and 0.0062 and 0.0018 and 0.0015 with Amyloid β (Cortex); 0.0022 and 0.0020 and 0.0026 and 0.0016 and 0.0029 and 0.0072 and 0.0052 and 0.0013 with Amyloid β (Hippocampus). Besides, the “Sup. Fig. 6-1B, IHC signal” value in the data set on Amyloid β (Females) is 0.0046 and 0.0222 and 0.0056 and 0.0307 and 0.0209 and 0.0044 and 0.0060; in the data set on Amyloid β (Males), 0.0033 and 0.0053 and 0.0092 and 0.0140 and 0.0194 and 0.0050 and 0.0040 and 0.0079 and 0.0183. The “Amyloid β vs vehicle” value was “unchanged” in the data set on Amyloid β (females), “insignificantly reduced” in the data set with Amyloid β (males) and “not significantly reduced” with Amyloid β (total population). Moreover, the “Iba1 normalized volume (individual mice)” value was 0.0305 and 0.0266 and 0.0346 and 0.0314 and 0.0200 and 0.0191 and 0.0158 with Iba1 (Females); 0.0473 and 0.0384 and 0.0542 and 0.0369 and 0.0352 and 0.0318 and 0.0209 and 0.0414 and 0.0362 in the data set on Iba1 (Males); 0.0473 and 0.0384 and 0.0542 and 0.0369 and 0.0352 and 0.0314 and 0.0200 and 0.0191 and 0.0158 and 0.0305 and 0.0266 and 0.0346 and 0.0318 and 0.0209 and 0.0414 and 0.0362 with Iba1 (Males + Females). The “Figure 9D, IHC signal” value in the data set on Iba1 (Cortex) is 0.0209 and 0.0186 and 0.0218 and 0.0206 and 0.0305 and 0.0198 and 0.0227; in the data set with Iba1 (Hippocampus), 0.0213 and 0.0206 and 0.0202 and 0.0175 and 0.0174 and 0.0220 and 0.0296 and 0.0197. Further, the values for the Iba1 vs vehicle entry in the data set with Iba1 (females), in the data set with Iba1 (males) and in the data set on Iba1 (total population) were “significantly reduced”, “insignificantly reduced” and “significantly reduced”, respectively. The “adverse effects of chronic ingestion” value in the data set with 5xFAD mice is “no adverse effects were seen”.
